In patent US7652153B2, “Caspase inhibitors and uses thereof” (Vertex Pharmaceuticals Incorporated, priority 2004, dated 2010):

Experiments:
[1] = target: T1, caspase-1 (Homo sapiens, UniProt P29466); assay: Caspase-1 enzyme inhibition (Ki, method of Margolin et al.); format: biochemical; conditions: Suc-YVAD-pNA substrate 80 μM, 37° C., pH 7.5; read-out: Ki C1
T1 sequence (P29466 120-297 limits assumed): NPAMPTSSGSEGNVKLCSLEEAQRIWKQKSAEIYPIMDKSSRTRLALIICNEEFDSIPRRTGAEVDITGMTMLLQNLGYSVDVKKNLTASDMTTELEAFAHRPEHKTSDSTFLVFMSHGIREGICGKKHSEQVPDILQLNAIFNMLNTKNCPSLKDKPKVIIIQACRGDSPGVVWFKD
T1 sequence (P29466 317-404 limits assumed): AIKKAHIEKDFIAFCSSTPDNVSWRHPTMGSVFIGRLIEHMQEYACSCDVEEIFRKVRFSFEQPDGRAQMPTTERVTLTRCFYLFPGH
Experimental: (§1) Compounds of this invention may be tested using the methods described below.
(§2) In Vitro Assays Enzyme Inhibition
(§3) Ki values for test compounds with caspase-1 and caspase-8 were obtained by the method of Margolin et al. (J. Biol. Chem., 272 pp. 7223-7228 (1997)). Other caspases may be assayed similarly (see, e.g., WO 99/47545). Assays were performed in 10 mM Tris (Sigma Corp, St Louis Mo.) pH 7.5, 1 mM Dithiothreitol (DTT, Research Organic INC, Cleveland, Ohio) and 0.1% CHAPS (Pierce, Rockford Ill.) at 37° C. For caspase-3, a solution of 8% glycerol was added to the assay buffer to improve enzyme stability. A 65 μL aliquot of the assay buffer and 5 μL aliquot of the appropriate dilutions of inhibitor in DMSO where pipetted into a 96 well plate, treated with 10 μL of caspase, then diluted in assay buffer (0.5-40 nM active protein by active site titration). A control containing DMSO but no compound was included for each determination. The plates were then incubated for 15 minutes at 37° C., before addition of the appropriate substrate (20 μL, final concentration 1-4×KM, final assay volume 100 μL) to initiate the reaction. Reaction rates were measured at 37° C. either by following the time dependant increase in absorbance at 405 nm (for the pNA substrates) or in fluorescence (Ex 390, Em 460) (for the AMC substrates). The rates obtained were plotted against inhibitor concentration and the data fit to the Morrison tight-binding equation for competitive inhibitors (Morrison, J. F., Biochem. Biophys. Acta, 185 pp. 269-286 (1969)). The substrates used for the individual assays were as follows:
Caspase-1 Suc-YVAD-pNA (Bachem, King of Prussia, Pa.) (final concentration in the assay 80 μM);

[2] = target: caspase-8 (Homo sapiens, UniProt Q14790); assay: Caspase-8 enzyme inhibition (Ki, method of Margolin et al.); format: biochemical; conditions: Ac-DEVD-pNA substrate 80 μM, 37° C., pH 7.5; read-out: Ki C8
Experimental: as §1, §2, §3
Caspase-8 Ac-DEVD-pNA (Bachem, King of Prussia, Pa.) (final concentration in assay 80 μM).

Sequence of caspase-8 (Q14790 217-374 limits assumed, species assumed): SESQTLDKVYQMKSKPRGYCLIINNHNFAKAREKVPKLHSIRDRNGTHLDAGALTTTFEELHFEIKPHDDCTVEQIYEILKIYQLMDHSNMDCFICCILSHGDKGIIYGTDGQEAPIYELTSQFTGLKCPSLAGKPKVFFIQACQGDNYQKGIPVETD
Sequence of caspase-8 (Q14790 385-479 limits assumed, species assumed): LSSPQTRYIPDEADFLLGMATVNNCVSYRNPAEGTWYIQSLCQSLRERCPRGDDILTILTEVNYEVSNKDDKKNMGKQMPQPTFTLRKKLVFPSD

Row | SMILES | Ki [1] | Ki [2]
1 | COc1cccc(C(=O)N[C@H](C(=O)N2[C@@H]3CC[C@@H](C3)[C@H]2C(=O)NC(C=O)CC(=O)O)C(C)(C)C)c1C (stereo in doubt) [II-55, (3S)-({2-[(2S)-(3-Methoxy-2-methyl-benzoylamino)-3,3-dimethyl-butyryl]-2-(1S,4R)-aza-bicyclo[2.2.1]heptane-(3S)-carbonyl}-amino)-4-oxo-butyric acid] | < 10 nM | < 10 nM
2 | CC(C)(C)[C@H](NC(=O)c1ccccc1Cl)C(=O)N1[C@@H]2CC[C@@H](C2)[C@H]1C(=O)NC(C=O)CC(=O)O (stereo in doubt) [II-56, (3S)-({2-[(2S)-(2-Chloro-benzoylamino)-3,3-dimethyl-butyryl]-2-(1S,4R)-aza-bicyclo[2.2.1]heptane-(3S)-carbonyl}-amino)-4-oxo-butyric acid] | < 10 nM | < 10 nM
3 | CC(=O)Nc1ccc(C(=O)N[C@H](C(=O)N2C3CC[C@@H](C3)[C@H]2C(=O)N[C@H](C=O)CC(=O)O)C(C)(C)C)c(Cl)c1 (stereo in doubt) [II-57, (3S)-({2-[(2S)-(4-Acetylamino-2-chloro-benzoylamino)-3,3-dimethyl-butyryl]-2-(1S,4R)-aza-bicyclo[2.2.1]heptane-(3S)-carbonyl}-amino)-4-oxo-butyric acid] | < 10 nM | < 10 nM
4 | CCC(=O)Nc1ccc(C(=O)N[C@H](C(=O)N2C3CC[C@@H](C3)[C@H]2C(=O)NC(C=O)CC(=O)O)C(C)(C)C)c(Cl)c1 (stereo in doubt) [II-58, (3S)-({2-[(2S)-(2-Chloro-4-propionylamino-benzoylamino)-3,3-dimethyl-butyryl]-2-(1S,4R)-aza-bicyclo[2.2.1]heptane-(3S)-carbonyl}-amino)-4-oxo-butyric acid] | < 10 nM | < 10 nM
5 | CC(C)C(=O)Nc1cccc(C(=O)N[C@H](C(=O)N2C3CC[C@@H](C3)[C@H]2C(=O)N[C@H](C=O)CC(=O)O)C(C)(C)C)c1Cl (stereo in doubt) [II-59, (3S)-({2-[(2S)-(2-Chloro-3-isobutyrylamino-benzoylamino)-3,3-dimethyl-butyryl]-2-(1S,4R)-aza-bicyclo[2.2.1]heptane-(3S)-carbonyl}-amino)-4-oxo-butyric acid] | < 10 nM | < 10 nM
6 | COc1cccc(C(=O)N[C@H](C(=O)N2C3CC[C@@H](C3)[C@H]2C(=O)N[C@H](C=O)CC(=O)O)C(C)(C)C)c1F (stereo in doubt) [II-60, (3S)-({2-[(2S)-(2-Fluoro-3-methoxy-benzoylamino)-3,3-dimethyl-butyryl]-2-(1S,4R)-aza-bicyclo[2.2.1]heptane-(3S)-carbonyl}-amino)-4-oxo-butyric acid] | < 10 nM | < 10 nM
7 | COc1cccc(C(=O)N[C@H](C(=O)N2C3CC[C@@H](C3)[C@H]2C(=O)N[C@H](C=O)CC(=O)O)C(C)C)c1F (stereo in doubt) [II-61, (3S)-({2-[(2S)-(2-Fluoro-3-methoxy-benzoylamino)-3-methyl-butyryl]-2-(1S,4R)-aza-bicyclo[2.2.1]heptane-(3S)-carbonyl}-amino)-4-oxo-butyric acid] | < 10 nM | < 10 nM
8 | CC(=O)Nc1ccc(C(=O)N[C@H](C(=O)N2[C@@H]3CC[C@@H](C3)[C@H]2C(=O)N[C@H](C=O)CC(=O)O)C(C)(C)C)cc1Cl (stereo in doubt) [II-62, (3S)-({2-[(2S)-(4-Acetylamino-3-chloro-benzoylamino)-3,3-dimethyl-butyryl]-2-(1S,4R)-aza-bicyclo[2.2.1]heptane-(3S)-carbonyl}-amino)-4-oxo-butyric acid] | < 10 nM | 10 to 20 nM
9 | CCC(=O)Nc1ccc(C(=O)N[C@H](C(=O)N2[C@@H]3CC[C@@H](C3)[C@H]2C(=O)N[C@H](C=O)CC(=O)O)C(C)(C)C)cc1Cl (stereo in doubt) [II-63, (3S)-({2-[(2S)-(3-Chloro-4-propionylamino-benzoylamino)-3,3-dimethyl-butyryl]-2-(1S,4R)-aza-bicyclo[2.2.1]heptane-(3S)-carbonyl}-amino)-4-oxo-butyric acid] | < 10 nM | 10 to 20 nM
10 | CC(C)(C)[C@H](NC(=O)c1nccc2ccccc12)C(=O)N1[C@@H]2CC[C@@H](C2)[C@H]1C(=O)N[C@H](C=O)CC(=O)O (stereo in doubt) [II-64, (3S)-({2-[(2S)-(Isoquinolin-1-ylcarbonylamino)-3,3-dimethyl-butyryl]-2-(1S,4R)-aza-bicyclo[2.2.1]heptane-(3S)-carbonyl}-amino)-4-oxo-butyric acid] | 10 to 20 nM | 10 to 20 nM
11 | CC(C)(C)[C@H](NC(=O)c1ccc(N)c(Cl)c1)C(=O)N1[C@@H]2CC[C@@H](C2)[C@H]1C(=O)N[C@H](C=O)CC(=O)O (stereo in doubt) [II-65, (3S)-({2-[(2S)-(4-Amino-3-chloro-benzoylamino)-3,3-dimethyl-butyryl]-2-(1S,4R)-aza-bicyclo[2.2.1]heptane-(3S)-carbonyl}-amino)-4-oxo-butyric acid] | < 10 nM | < 10 nM
12 | CC(C)[C@H](NC(=O)c1ccc(N)c(Cl)c1)C(=O)N1[C@@H]2CC[C@@H](C2)[C@H]1C(=O)N[C@H](C=O)CC(=O)O (stereo in doubt) [II-66, (3S)-({2-[(2S)-(4-Amino-3-chloro-benzoylamino)-3-methyl-butyryl]-2-(1S,4R)-aza-bicyclo[2.2.1]heptane-(3S)-carbonyl}-amino)-4-oxo-butyric acid] | 10 to 20 nM | < 10 nM
13 | COc1cccc(C(=O)N[C@H](C(=O)N2CCC[C@H]2C(=O)N[C@H](C=O)CC(=O)O)C(C)C)c1C [II-1, (S,S,S)-(3S)-({1-[(2S)-(3-Methoxy-2-methyl-benzoylamino)-3-methyl-butyryl]-pyrrolidine-(2S)-carbonyl}-amino)-4-oxo-butyric acid] | < 10 nM | < 10 nM
14 | CC(C)[C@H](NC(=O)c1ccccc1Cl)C(=O)N1CCC[C@H]1C(=O)N[C@H](C=O)CC(=O)O [II-2, (S,S,S)-(3S)-({1-[(2S)-(2-Chloro-benzoylamino)-3-methyl-butyryl]-pyrrolidine-(2S)-carbonyl}-amino)-4-oxo-butyric acid] | < 10 nM | < 10 nM
15 | Cc1ccccc1C(=O)N[C@H](C(=O)N1CCC[C@H]1C(=O)N[C@H](C=O)CC(=O)O)C(C)C [II-3, (S,S,S)-(3S)-({1-[3-Methyl-(2S)-(2-methyl-benzoylamino)-butyryl]-pyrrolidine-(2S)-carbonyl}-amino)-4-oxo-butyric acid] | < 10 nM | < 10 nM
16 | COc1ccccc1C(=O)N[C@H](C(=O)N1CCC[C@H]1C(=O)N[C@H](C=O)CC(=O)O)C(C)C [II-4, (S,S,S)-(3S)-({1-[(2S)-(2-methoxy-benzoylamino)-3-methyl-butyryl]-pyrrolidine-(2S)-carbonyl}-amino)-4-oxo-butyric acid] | < 10 nM | 10 to 20 nM
17 | CC(C)[C@H](NC(=O)c1ccccc1OC(F)(F)F)C(=O)N1CCC[C@H]1C(=O)N[C@H](C=O)CC(=O)O [II-5, (S,S,S)-(3S)-({1-[3-Methyl-(2S)-(2-trifluoromethoxy-benzoylamino)-butyryl]-pyrrolidine-(2S)-carbonyl}-amino)-4-oxo-butyric acid] | < 10 nM | 10 to 20 nM
18 | Cc1c(O)cccc1C(=O)N[C@H](C(=O)N1CCC[C@H]1C(=O)N[C@H](C=O)CC(=O)O)C(C)C [II-6, (S,S,S)-(3S)-({1-[(2S)-(3-Hydroxy-2-methyl-benzoylamino)-3-methyl-butyryl]-pyrrolidine-(2S)-carbonyl}-amino)-4-oxo-butyric acid] | < 10 nM | < 10 nM
19 | Cc1c(N)cccc1C(=O)N[C@H](C(=O)N1CCC[C@H]1C(=O)N[C@H](C=O)CC(=O)O)C(C)C [II-7, (S,S,S)-(3S)-({1-[(2S)-(3-Amino-2-methyl-benzoylamino)-3-methyl-butyryl]-pyrrolidine-(2S)-carbonyl}-amino)-4-oxo-butyric acid] | < 10 nM | 10 to 20 nM
20 | CC(C)[C@H](NC(=O)c1cccc(Cl)c1Cl)C(=O)N1CCC[C@H]1C(=O)N[C@H](C=O)CC(=O)O [II-8, (S,S,S)-(3S)-({1-[(2S)-(2,3-Dichloro-benzoylamino)-3-methyl-butyryl]-pyrrolidine-(2S)-carbonyl}-amino)-4-oxo-butyric acid] | < 10 nM | 10 to 20 nM
